# From US20250041451A1, “GENE THERAPY FOR HEARING LOSS” (Perceive Biotherapeutics, Inc., priority 2021, published 2025)
# Read-outs that look alike come from different tables or passages of the source.
# Tests used:
# [1] = system: cochlear hair cells (mouse cochlear explants); type: cell-based; conditions: for number of viable hair cells: untreated explants 17-52
# Source text: In some embodiments, an in vitro method is employed. An illustrative assay uses an aminoglycoside-induced model (using gentamycin) of hair cell death using cochlear explants. In brief, the cochleae are collected from test animal, e.g., mice. All cochleae are combined in the same dissection maintenance bath and plated as an individual sample. The following morning, high magnification digital images of cochlea are taken and cochlear explant is assigned to groups. A desired number of explants will be used for further gentamicin treatment. Test article and positive control article are dosed ˜6 hours either prior, together with, or following to gentamicin for a duration of up to 3 days. If the culture medium is replaced (e.g. when gentamicin is added/removed), the test or positive control article will be re-administered. The cochlea are cultured and observed for health and survival. At the end of the culture cochlear explants are bathed with buffer and processed for cochleogram. Following the fixation, all the cochlear explants undergo immunofluorescent staining with anti-Myosin VIIa and Phalloidin in order to specifically label the hair cells. The explants are then mounted on microscope slides, and imaged utilizing a confocal microscope using the same laser power settings for all samples. Cochlear fragment images are then divided into 20% fragments from the apex to the base. MyosinVIIa light intensity is quantified in each fragment and compared among groups. Image analysis is performed using an imaging platform, e.g., a Fiji image analysis platform. Explants are scanned using confocal microscope with filters for 488 nm and 594 nm wave lengths. Scanning is performed using the same laser power through the entire imaging for proper light intensity calculation. For analysis, cochlea can be divided in fragment of X %. Intensity of light coming from MyoVii is quantified in each fragment and compared among groups.
# Mouse cochlear explants were treated with “ORI-069” a small molecule inhibitor of DLK and LZK. ORI-069 is 2-Amino-N-[(2S)-butan-2-yl]-7-(1-{2-methyl-1-[6-(trifluoromethyl)pyridin-3-yl]propyl}-1H-pyrazol-4-yl)[1,2,4]triazolo[1,5-ca]pyridine-5-carboxamide (stereoisomers 2, eutomer).
# Animals were euthanized in accordance with American Veterinary Medical Association guidelines and cochleae were collected. All cochleae from each group were combined in the same dissection maintenance bath and plated as a group.
# At the end of the culture period, the cochlear explants were bathed with 10% neutral buffered formalin (NBF) and processed for hair cell counting. Digital images of the cultures were collected before fixation.
# Following fixation, all cochlear explants underwent immunofluorescent staining with anti-Myosin VIIa to specifically label the hair cells. The explants were mounted on microscope slides, then imaged utilizing a confocal microscope: 20× for full scan and with 63× oil, zoom 2.25, 4 zones along the length of the cochlea: one from 50-200 μm for each extremity, one in the 33% tile and one in the 66% tile. Detailed scanning was performed using 488 nm and 594 nm filters.
# A blind counting of all hair cells (OHC & IHC undiscriminated) was performed on 4 to 6 zones of each explant (fragments 1, 2, 3, 4, 5 and 6) through the entire z stack generated. Counting and fragment length measure was performed by 3 different individuals. Only cells without nucleus aberration, with good staining, integrity, and well delimited cell outline were considered for counting. Cell density was determined by reporting each counting to the length of the fragment. Image analysis was performed using Fiji image analysis platform, a distribution of ImageJ.
# HC survival and hearing = conditions: literature (Ylikoski 2002; Pirvola 2000); cited from earlier work
compound,measurement,setting,value
CCSCc1ccc2c(c1)c1c3c(c4c5cc(CSCC)ccc5n5c4c1n2[C@H]1C[C@](O)(C(=O)OC)[C@]5(C)O1)CNC3=O [CEP-1347],level of hair cells compared to gentamycin treated explants,[1]; 0.5 μM test article + gentamycin 50 μM,same low level of hair cells as the gentamycin treated explants
same,protective effect,"[1]; positive control, 0.5 μM + gentamycin 50 μM",did not show a protective effect
same,HC survival and hearing in multiple animal models,HC survival and hearing,increase HC survival and preserve hearing
"CC[C@H](C)NC(=O)c1cc(-c2cnn(C(c3ccc(C(F)(F)F)nc3)C(C)C)c2)cc2nc(N)nn12 (stereo partly drawn) [ORI-069, 2-Amino-N-[(2S)-butan-2-yl]-7-(1-{2-methyl-1-[6-(trifluoromethyl)pyridin-3-yl]propyl}-1H-pyrazol-4-yl)[1,2,4]triazolo[1,5-ca]pyridine-5-carboxamide]",number of hair cells compared to gentamycin treated explants,[1]; 5 μM test article + gentamycin 50 μM,higher compared to gentamycin treated explants
same,number of viable hair cells,"[1]; gentamycin 50 μM (16 h) treated explants co-administered with 0.5 μM test article, 3 days",0-20 hair cells/fragment
same,number of viable hair cells,"[1]; gentamycin 50 μM (16 h) treated explants co-administered with 5 μM test article, 3 days",0-32 hair cells/fragment
same,"protection of explant cultures (3-D Z-stack reconstructions, FIG. 2)","[1]; gentamycin 50 μM treated explants, concentration not given",protected explant cultures
gentamycin,number of viable hair cells,"[1]; gentamycin 50 μM alone, single 16 h",0-14 hair cells/fragment
